Experimental data taken from US10471054B2, “CDK1 inhibitors of acetyl chrysin mannich base derivatives, synthesis and use thereof” (priority 2016, dated 2019).

Experiments:
HIF-1α = HIF-1α expression in BGC-823, immune-printing; type: cell-based; details: 0, 2.5, 5, 10 μM for 1 h, then insulin
Method: BGC-823 was treated with 0, 2.5, 5, 10 μM CH-j for 1 h, then the 2 μM insulin was added, and 2 h were cultured, and the cells were collected and lysed.
FIG. 4: CH-j effect on the HIF-1 of BGC-823 was treated with 0, 2.5, 5, 10 μM CH-j for 1 h, then added 0.2 μM insulin culture for 24 h, and the HIF-1α and HIF-1β were determined by the immune imprinting method.

CDK1 = CDK1 (Homo sapiens, UniProt P06493); assay: CDK1 inhibition activity; type: biochemical
BGC-823 [1] = assay: Annexin V-FITC-PI double fluorescence, apoptosis and necrosis; type: cell-based; details: 24 h
Text: There is a series of morphological characteristic changes in the apoptosis of cells, in which the change of the plasma membrane is one of the characteristics of early apoptosis. The cytoplasm is flipped from the inside of the cytoplasm to the outer surface of the cell when the cell apoptosis, Annexin V is a Ca^++ dependent phospholipid binding protein, which has a high affinity with phospholipid-peptide-serine, which can be combined with the phospholipid peptide specificity that is exposed to the extracellular cells. However, cytoplasm transfer to cell membrane is not unique to apoptosis, but also can occur in cell necrosis. The difference between the two cell death modes is that the cell membrane is intact in the initial stage of apoptosis, and the integrity of the cell membrane in its early stage is destroyed. PI is a nucleic acid dye that cannot pass through the intact cell membrane, but in the cell and necrotic cells in the middle and late stage of apoptosis, the PI can dye the nucleus through the cell membrane. Annexin V-FITC-PI was used to detect apoptosis and necrotic cell ratio on flow cytometry.
A relatively small increase in apoptotic cells is increased.
FIG. 3-3 Annexin V-FITC/PI staining results for BGC-823.

PC-3 = assay: Anti-cancer cells proliferation activity (MTT, 48 h); type: cell-based; details: Homo sapiens, PC-3, MTT
Text: (§1) Anti-cancer cells proliferationactivity of in vitro CH-j and CH-f were shown in TABLE 2 for the results of the screening of 5 cancers cells.

H-460 = assay: as above; type: cell-based; details: Homo sapiens, NCI-H460, H-460, MTT
Text: as §1

MCF-7 = assay: as above; type: cell-based; details: Homo sapiens, MCF7, MCF-7, MTT
Text: as §1

Hep G2 = assay: as above; type: cell-based; details: Homo sapiens, HepG2
Text: as §1

BGC-823 [2] = assay: PI staining flow cytometry, cell cycle; type: cell-based; details: 24 h
Text: PI specificity is combined with DNA, and the fluorescence intensity is in a good linear relationship with the combination of PI. After cell fixation, PI staining was used for quantitative analysis of DNA content in cells by flow cytometry. Since the amount of DNA in different cell cycles varies, it can be determined that the drug actions on the cell cycle. In cell apoptosis, there are many characteristic changes in the cell and molecular level, and the most characteristic of the change of nucleus is the change of nucleus. Due to activate apoptosis cells, DNA degradation, reduce the cell DNA, and therefore can be in the GO/G1 peak appeared before a diploid apoptosis peak (sub-G1), […] pyrolysis peak integer times of DNA, no less than […] pyrolysis peak.
In addition, high concentrations of drugs can also reduce the proportion of S stage cells.
FIG. 3-2 PI staining results for BGC-823.

Chain of CDK1 (P06493 whole entry, species assumed): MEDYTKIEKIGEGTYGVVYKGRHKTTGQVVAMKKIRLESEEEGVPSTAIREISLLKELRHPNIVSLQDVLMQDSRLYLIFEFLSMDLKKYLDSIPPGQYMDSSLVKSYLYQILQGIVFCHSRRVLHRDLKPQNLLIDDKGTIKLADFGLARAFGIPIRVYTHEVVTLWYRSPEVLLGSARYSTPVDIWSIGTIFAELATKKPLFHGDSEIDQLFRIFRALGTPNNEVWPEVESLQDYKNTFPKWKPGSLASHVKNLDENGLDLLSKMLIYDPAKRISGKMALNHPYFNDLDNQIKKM
Chain of CDK1 (P14635 whole entry partner, species assumed): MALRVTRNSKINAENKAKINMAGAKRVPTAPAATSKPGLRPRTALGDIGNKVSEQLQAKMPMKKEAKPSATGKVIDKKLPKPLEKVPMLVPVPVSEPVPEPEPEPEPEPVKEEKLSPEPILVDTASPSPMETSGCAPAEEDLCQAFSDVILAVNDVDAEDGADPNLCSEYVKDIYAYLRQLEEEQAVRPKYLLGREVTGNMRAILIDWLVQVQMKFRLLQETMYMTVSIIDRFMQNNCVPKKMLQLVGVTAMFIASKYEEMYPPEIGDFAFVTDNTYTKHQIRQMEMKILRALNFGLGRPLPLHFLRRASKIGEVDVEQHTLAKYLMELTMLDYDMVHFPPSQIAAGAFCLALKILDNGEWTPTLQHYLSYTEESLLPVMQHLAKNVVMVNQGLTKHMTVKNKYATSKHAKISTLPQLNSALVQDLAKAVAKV

For CC(=O)c1c(O)c(CN2CCC(O)CC2)c2oc(-c3ccccc3)cc(=O)c2c1O [CH-j, 6-Acetyl-5,7-dihydroxy-8-(4-hydroxy-piperidin-1-ylmethyl)-2-phenyl-chromen-4-one], the HIF-1α expression (HIF-1α) was “inhibited HIF-1α expression in a dose-dependent manner”, the “CDK1 inhibition, times stronger than BA-j” value (CDK1) was “about 2 times” and the CDK1 50% inhibitory concentration (CDK1; read-out: inhibiting CDK1 CC50) was 150 nM. The “Apoptosis and necrosis by Annexin V-FITC-PI” value (BGC-823 [1]) was “induce apoptosis the BGC-823 with obvious dose-dependent manner”, the IC50 (PC-3) was 6.2 ± 1.16 µM and the IC50 (H-460) was 6.5 ± 1.13 µM. For the same compound, the IC50 (MCF-7) was 5.7 ± 1.24 µM, the IC50 (Hep G2) was 6 ± 1.5 µM and the “Cell cycle effect by PI staining” value (BGC-823 [2]) was “block the BGC-823 in G1, G2 phase”.
